From patent US8710065B2, “Tricyclic inhibitors of kinases” (AbbVie Inc., priority 2011, dated 2014)

Biological target: T1, GST-tagged-Wee1 kinase (Homo sapiens, UniProt P30291)
T1 construct: purchased Carnabio (Carna Biosciences) 05-177
Assay: Wee1 time-resolved fluorescence equilibrium binding assay (displacement of Oregon Green-labeled ATP-competitive kinase probe)
Settings: read-out: Wee-1 inhibition (Ki)
Experimental: Wee1 kinase was assayed using a time-resolved fluorescence equilibrium binding assay monitoring displacement of a rapidly reversible Oregon Green-labeled ATP-competitive kinase probe (N-(2-(2-(2-(4-(4-(5-chloro-4-(2-(1-hydroxycyclobutyl)thiazol-5-yl)-1H-pyrrolo[2,3-b]pyridin-2-yl)phenyl)piperazin-1-yl)ethoxy)ethoxy)ethyl)-2′,7′-difluoro-3′,6′-dihydroxy-3-oxo-3H-spiro[isobenzofuran-1,9′-xanthene]-5-carboxamide) by competitive Wee1 inhibitors.
Table 1 depicts enzyme inhibition data (Ki) for exemplary compounds.

T1 sequence (P30291 whole entry): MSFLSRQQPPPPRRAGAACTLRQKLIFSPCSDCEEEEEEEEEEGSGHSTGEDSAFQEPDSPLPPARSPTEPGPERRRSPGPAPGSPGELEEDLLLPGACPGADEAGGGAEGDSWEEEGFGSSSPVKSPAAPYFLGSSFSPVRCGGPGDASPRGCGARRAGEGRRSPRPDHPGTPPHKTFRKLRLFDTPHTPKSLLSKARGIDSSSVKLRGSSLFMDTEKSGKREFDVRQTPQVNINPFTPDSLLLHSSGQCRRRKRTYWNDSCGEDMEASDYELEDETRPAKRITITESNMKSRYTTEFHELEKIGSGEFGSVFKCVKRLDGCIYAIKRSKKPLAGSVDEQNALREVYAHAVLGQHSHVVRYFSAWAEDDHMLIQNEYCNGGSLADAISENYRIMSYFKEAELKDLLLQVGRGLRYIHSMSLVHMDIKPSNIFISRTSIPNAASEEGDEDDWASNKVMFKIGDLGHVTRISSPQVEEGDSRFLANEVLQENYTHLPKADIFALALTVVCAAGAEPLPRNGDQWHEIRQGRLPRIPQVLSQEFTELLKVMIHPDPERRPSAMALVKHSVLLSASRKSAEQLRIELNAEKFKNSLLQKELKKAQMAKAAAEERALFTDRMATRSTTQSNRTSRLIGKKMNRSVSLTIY

Row | SMILES | Ki
1 | CN1CCN(c2ccc(Nc3ncc4c(=O)n(-c5ccccc5Cl)c5nccn5c4n3)cc2)CC1 [Example 1, 6-(2-chlorophenyl)-2-{[4-(4-methylpiperazin-1-yl)phenyl]amino}imidazo[1,2-a]pyrimido[5,4-e]pyrimidin-5(6H)-one] | < 0.01 µM
2 | O=c1c2cnc(Nc3ccccc3)nc2n2ccnc2n1-c1ccccc1Cl [Example 2, 2-anilino-6-(2-chlorophenyl)imidazo[1,2-a]pyrimido[5,4-e]pyrimidin-5(6H)-one] | 0.01 to 0.1 µM
3 | O=c1c2cnc(Nc3ccncc3)nc2n2ccnc2n1-c1ccccc1Cl [Example 3, 6-(2-chlorophenyl)-2-(pyridin-4-ylamino)imidazo[1,2-a]pyrimido[5,4-e]pyrimidin-5(6H)-one] | > 0.1 µM
4 | CN1Cc2cc(Nc3ncc4c(=O)n(-c5ccccc5Cl)c5nccn5c4n3)ccc2C2(CC2)C1 [Example 4, 6-(2-chlorophenyl)-2-[(2′-methyl-2′,3′-dihydro-1′H-spiro[cyclopropane-1,4′-isoquinolin]-7′-yl)amino]imidazo[1,2-a]pyrimido[5,4-e]pyrimidin-5(6H)-one] | < 0.01 µM
5 | O=c1c2cnc(Nc3ccc4c(c3)CCCC4)nc2n2ccnc2n1-c1ccccc1Cl [Example 5, 6-(2-chlorophenyl)-2-(5,6,7,8-tetrahydronaphthalen-2-ylamino)imidazo[1,2-a]pyrimido[5,4-e]pyrimidin-5(6H)-one] | 0.01 to 0.1 µM
6 | CN1CCN(c2cccc(Nc3ncc4c(=O)n(-c5ccccc5Cl)c5nccn5c4n3)c2)CC1 [Example 6, 6-(2-chlorophenyl)-2-{[3-(4-methylpiperazin-1-yl)phenyl]amino}imidazo[1,2-a]pyrimido[5,4-e]pyrimidin-5(6H)-one] | < 0.01 µM
7 | O=c1c2cnc(Nc3ccc(C4CCCCC4)cc3)nc2n2ccnc2n1-c1ccccc1Cl [Example 7, 6-(2-chlorophenyl)-2-[(4-cyclohexylphenyl)amino]imidazo[1,2-a]pyrimido[5,4-e]pyrimidin-5(6H)-one] | 0.01 to 0.1 µM
8 | O=c1c2cnc(Nc3ccc(N4CCCCC4)cc3)nc2n2ccnc2n1-c1ccccc1Cl [Example 8, 6-(2-chlorophenyl)-2-{[4-(piperidin-1-yl)phenyl]amino}imidazo[1,2-a]pyrimido[5,4-e]pyrimidin-5(6H)-one] | < 0.01 µM
9 | O=c1c2cnc(Nc3ccc(CN4CCCC4)cc3)nc2n2ccnc2n1-c1ccccc1Cl [Example 9, 6-(2-chlorophenyl)-2-{[4-(pyrrolidin-1-ylmethyl)phenyl]amino}imidazo[1,2-a]pyrimido[5,4-e]pyrimidin-5(6H)-one] | < 0.01 µM
10 | O=c1c2cnc(Nc3ccc(N4CCOCC4)cc3)nc2n2ccnc2n1-c1ccccc1Cl [Example 10, 6-(2-chlorophenyl)-2-{[4-(morpholin-4-yl)phenyl]amino}imidazo[1,2-a]pyrimido[5,4-e]pyrimidin-5(6H)-one] | < 0.01 µM
11 | O=c1c2cnc(Nc3cccc(CN4CCCC4)c3)nc2n2ccnc2n1-c1ccccc1Cl [Example 11, 6-(2-chlorophenyl)-2-{[3-(pyrrolidin-1-ylmethyl)phenyl]amino}imidazo[1,2-a]pyrimido[5,4-e]pyrimidin-5(6H)-one] | 0.01 to 0.1 µM
12 | CC(=O)N1CCc2ccc(Nc3ncc4c(=O)n(-c5ccccc5Cl)c5nccn5c4n3)cc21 [Example 12, 2-[(1-acetyl-2,3-dihydro-1H-indol-6-yl)amino]-6-(2-chlorophenyl)imidazo[1,2-a]pyrimido[5,4-e]pyrimidin-5(6H)-one] | < 0.01 µM
13 | CC(=O)N1CCN(c2ccc(Nc3ncc4c(=O)n(-c5ccccc5Cl)c5nccn5c4n3)cc2)CC1 [Example 13, 2-{[4-(4-acetylpiperazin-1-yl)phenyl]amino}-6-(2-chlorophenyl)imidazo[1,2-a]pyrimido[5,4-e]pyrimidin-5(6H)-one] | < 0.01 µM
14 | Cc1ccccc1-n1c(=O)c2cnc(Nc3ccc(N4CCN(C)CC4)cc3)nc2n2ccnc12 [Example 14, 6-(2-methylphenyl)-2-{[4-(4-methylpiperazin-1-yl)phenyl]amino}imidazo[1,2-a]pyrimido[5,4-e]pyrimidin-5(6H)-one] | < 0.01 µM
15 | CN1CCN(c2ccc(Nc3ncc4c(=O)n(-c5ccccc5C(F)(F)F)c5nccn5c4n3)cc2)CC1 [Example 15, 2-{[4-(4-methylpiperazin-1-yl)phenyl]amino}-6-[2-(trifluoromethyl)phenyl]imidazo[1,2-a]pyrimido[5,4-e]pyrimidin-5(6H)-one] | 0.01 to 0.1 µM
16 | COc1ccccc1-n1c(=O)c2cnc(Nc3ccc(N4CCN(C)CC4)cc3)nc2n2ccnc12 [Example 16, 6-(2-methoxyphenyl)-2-{[4-(4-methylpiperazin-1-yl)phenyl]amino}imidazo[1,2-a]pyrimido[5,4-e]pyrimidin-5(6H)-one] | 0.01 to 0.1 µM

Row | SMILES | Ki
17 | COc1cc(N2CCN(C)CC2)ccc1Nc1ncc2c(=O)n(-c3ccccc3Cl)c3nccn3c2n1 [Example 17, 6-(2-chlorophenyl)-2-{[2-methoxy-4-(4-methylpiperazin-1-yl)phenyl]amino}imidazo[1,2-a]pyrimido[5,4-e]pyrimidin-5(6H)-one] | > 0.1 µM
18 | CN1CCCc2ccc(Nc3ncc4c(=O)n(-c5ccccc5Cl)c5nccn5c4n3)cc21 [Example 18, 6-(2-chlorophenyl)-2-[(1-methyl-1,2,3,4-tetrahydroquinolin-7-yl)amino]imidazo[1,2-a]pyrimido[5,4-e]pyrimidin-5(6H)-one] | 0.01 to 0.1 µM
19 | O=C1COc2ccc(Nc3ncc4c(=O)n(-c5ccccc5Cl)c5nccn5c4n3)cc2N1 [Example 19, 6-(2-chlorophenyl)-2-[(3-oxo-3,4-dihydro-2H-1,4-benzoxazin-6-yl)amino]imidazo[1,2-a]pyrimido[5,4-e]pyrimidin-5(6H)-one] | 0.01 to 0.1 µM
20 | CC(C)(C)OC(=O)N1CCc2ccc(Nc3ncc4c(=O)n(-c5ccccc5Cl)c5nccn5c4n3)cc2C1 [Example 20, tert-butyl 7-{[6-(2-chlorophenyl)-5-oxo-5,6-dihydroimidazo[1,2-a]pyrimido[5,4-e]pyrimidin-2-yl]amino}-3,4-dihydroisoquinoline-2(1H)-carboxylate] | 0.01 to 0.1 µM
21 | O=c1c2cnc(Nc3ccc4c(c3)CNCC4)nc2n2ccnc2n1-c1ccccc1Cl [Example 21, 6-(2-chlorophenyl)-2-(1,2,3,4-tetrahydroisoquinolin-7-ylamino)imidazo[1,2-a]pyrimido[5,4-e]pyrimidin-5(6H)-one] | < 0.01 µM
22 | Cc1cc(Nc2ncc3c(=O)n(-c4ccccc4Cl)c4nccn4c3n2)ccc1N1CCN(C)CC1 [Example 22, 6-(2-chlorophenyl)-2-{[3-methyl-4-(4-methylpiperazin-1-yl)phenyl]amino}imidazo[1,2-a]pyrimido[5,4-e]pyrimidin-5(6H)-one] | < 0.01 µM
23 | C=CCn1c(=O)c2cnc(Nc3ccc(N4CCN(C)CC4)cc3)nc2n2ccnc12 [Example 23, 6-allyl-2-{[4-(4-methylpiperazin-1-yl)phenyl]amino}imidazo[1,2-a]pyrimido[5,4-e]pyrimidin-5(6H)-one] | > 0.1 µM
24 | CN1CCN(c2ccc(Nc3ncc4c(=O)n(C5CCCCC5)c5nccn5c4n3)cc2)CC1 [Example 24, 6-cyclohexyl-2-{[4-(4-methylpiperazin-1-yl)phenyl]amino}imidazo[1,2-a]pyrimido[5,4-e]pyrimidin-5(6H)-one] | > 0.1 µM
25 | Cc1cnc2n(-c3ccccc3Cl)c(=O)c3cnc(Nc4ccc(N5CCN(C)CC5)cc4)nc3n12 [Example 25, 6-(2-chlorophenyl)-9-methyl-2-{[4-(4-methylpiperazin-1-yl)phenyl]amino}imidazo[1,2-a]pyrimido[5,4-e]pyrimidin-5(6H)-one] | < 0.01 µM
26 | CN1CCN(c2ccc(Nc3ncc4c(=O)n(-c5ccccc5Cl)c5nncn5c4n3)cc2)CC1 [Example 26, 6-(2-chlorophenyl)-2-{[4-(4-methylpiperazin-1-yl)phenyl]amino}pyrimido[5,4-e][1,2,4]triazolo[4,3-a]pyrimidin-5(6H)-one] | 0.01 to 0.1 µM
27 | Cc1nnc2n(-c3ccccc3Cl)c(=O)c3cnc(Nc4ccc(N5CCN(C)CC5)cc4)nc3n12 [Example 27, 6-(2-chlorophenyl)-9-methyl-2-{[4-(4-methylpiperazin-1-yl)phenyl]amino}pyrimido[5,4-e][1,2,4]triazolo[4,3-a]pyrimidin-5(6H)-one] | 0.01 to 0.1 µM
28 | CN1CCN(c2ccc(Nc3ncc4c(=O)n(-c5ccccc5Cl)c5nnnn5c4n3)cc2)CC1 [Example 28, 4-(2-chlorophenyl)-8-{[4-(4-methylpiperazin-1-yl)phenyl]amino}pyrimido[5,4-e]tetrazolo[1,5-a]pyrimidin-5(4H)-one] | 0.01 to 0.1 µM
29 | CC(C)N1CCN(c2ccc(Nc3ncc4c(=O)n(-c5ccccc5Cl)c5nccn5c4n3)cc2)CC1 [Example 29, 6-(2-chlorophenyl)-2-({4-[4-(propan-2-yl)piperazin-1-yl]phenyl}amino)imidazo[1,2-a]pyrimido[5,4-e]pyrimidin-5(6H)-one] | < 0.01 µM
30 | O=c1c2cnc(Nc3ccc(N4CCN(CC5CCCCC5)CC4)cc3)nc2n2ccnc2n1-c1ccccc1Cl [Example 30, 6-(2-chlorophenyl)-2-({4-[4-(cyclohexylmethyl)piperazin-1-yl]phenyl}amino)imidazo[1,2-a]pyrimido[5,4-e]pyrimidin-5(6H)-one] | < 0.01 µM
31 | N#Cc1cccc(CN2CCN(c3ccc(Nc4ncc5c(=O)n(-c6ccccc6Cl)c6nccn6c5n4)cc3)CC2)c1 [Example 31, 3-{[4-(4-{[6-(2-chlorophenyl)-5-oxo-5,6-dihydroimidazo[1,2-a]pyrimido[5,4-e]pyrimidin-2-yl]amino}phenyl)piperazin-1-yl]methyl}benzonitrile] | 0.01 to 0.1 µM
32 | CN1CCN(c2ccc(Nc3ncc4c(=O)n(-c5ccccc5Cl)c5nccn5c4n3)cc2Cl)CC1 [Example 32, 2-{[3-chloro-4-(4-methylpiperazin-1-yl)phenyl]amino}-6-(2-chlorophenyl)imidazo[1,2-a]pyrimido[5,4-e]pyrimidin-5(6H)-one] | < 0.01 µM
